As usually defined, the Kd is the free concentration of one partner at which half of the binding sites on the other are occupied at equilibrium, for simple one-to-one binding.

These results are taken from publication PMC10279719 (Nature Communications, 2023).

The target of one test is T1, 14-3-3ε (Homo sapiens, UniProt P62258).
T1 construct: 14-3-3ε (UniProt P62258-1; residues 1–255); 8-His tag with TEV protease cleavage site (N); made in house; host or cells: E. coli C41 (DE3)
T1 sequence (P62258 1-255): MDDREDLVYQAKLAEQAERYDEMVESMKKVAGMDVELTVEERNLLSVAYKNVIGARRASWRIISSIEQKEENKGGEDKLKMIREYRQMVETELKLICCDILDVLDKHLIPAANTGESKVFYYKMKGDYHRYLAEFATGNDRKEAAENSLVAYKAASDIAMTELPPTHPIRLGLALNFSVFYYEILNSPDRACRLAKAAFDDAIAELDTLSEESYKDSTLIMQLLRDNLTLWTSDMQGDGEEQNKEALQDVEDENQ
Description: SPR, PEAK tandem peptides binding to immobilised 14-3-3ε. Particulars: peptide analyte over amine-coupled 14-3-3ε (CM5); Biacore S200, HBS-TP pH 7.4, 20 °C; steady-state 1:1 fit; mean ± S.E.M.; read-out: SPR KD, 14-3-3ε (epsilon). The protocol: Purified […]3 was diluted to 5 μg ml^-1 in 10 mM sodium acetate pH 4.0 and amine coupled at 25 °C to a Series S CM5 sensor chip, in HBS-N running buffer (20 mM HEPES pH 7.4, 150 mM NaCl) to a final immobilization level of 1100-1400 response units (RU), followed by surface deactivation using 1 M ethanolamine. A blank activation/deactivation was used for the reference surface. […] PEAK PRM peptides: […] Samples were injected in a multi-cycle run (flow rate 30 μl min^-1, contact time of 60 s, dissociation 120 s) without regeneration. Sensorgrams were double referenced, and steady-state binding data fitted using a 1:1 binding model using Biacore S200 Evaluation Software (Cytiva, v. 1.1). […] Representative sensorgrams and fitted dissociation constant (KD) values, depicted as mean ± S.E.M.
A general note: In SPR one partner is held on a chip, and binding of the other changes the refractive index at the surface.

The target in another test is T2, 14-3-3η (Homo sapiens, UniProt Q04917).
T2 construct: 14-3-3η (UniProt Q04917-1; residues 1–246); 8-His tag with TEV protease cleavage site (N); made in house; host or cells: E. coli C41 (DE3)
T2 sequence (Q04917 1-246): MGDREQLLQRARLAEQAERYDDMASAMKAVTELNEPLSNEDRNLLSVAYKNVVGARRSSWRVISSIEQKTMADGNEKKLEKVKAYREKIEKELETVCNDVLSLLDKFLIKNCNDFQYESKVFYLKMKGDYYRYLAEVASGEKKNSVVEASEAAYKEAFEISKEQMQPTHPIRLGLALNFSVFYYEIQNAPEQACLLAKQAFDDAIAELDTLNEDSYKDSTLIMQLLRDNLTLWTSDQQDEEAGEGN
Kind of test: SPR, PEAK tandem peptides binding to immobilised 14-3-3η. The conditions noted are these: peptide analyte over amine-coupled 14-3-3η (CM5); Biacore S200, HBS-TP pH 7.4, 20 °C; steady-state 1:1 fit; mean ± S.E.M.; read-out: SPR KD, 14-3-3η (eta). The procedure:
(§1) Purified […]3 was diluted to 5 μg ml^-1 in 10 mM sodium acetate pH 4.0 and amine coupled at 25 °C to a Series S CM5 sensor chip, in HBS-N running buffer (20 mM HEPES pH 7.4, 150 mM NaCl) to a final immobilization level of 1100-1400 response units (RU), followed by surface deactivation using 1 M ethanolamine. A blank activation/deactivation was used for the reference surface. […] Samples were injected in a multi-cycle run (flow rate 30 μl min^-1, contact time of 60 s, dissociation 120 s) without regeneration. Sensorgrams were double referenced, and steady-state binding data fitted using a 1:1 binding model using Biacore S200 Evaluation Software (Cytiva, v. 1.1). […] Representative sensorgrams and fitted dissociation constant (KD) values, depicted as mean ± S.E.M.

The target of test [1] is T3, CrkII^NSH3 (Homo sapiens, UniProt P46108).
T3 construct: CrkII^NSH3; UniProt P46108-1, residues 134–191; 8-His tag with TEV protease cleavage site (N); made in house; host or cells: E. coli C41 (DE3)
T3 sequence (P46108 134-191): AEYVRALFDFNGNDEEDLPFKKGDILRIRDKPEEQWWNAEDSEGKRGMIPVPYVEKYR
Kind of test: ITC, CrkII NSH3 titrated into PEAK3 tandem peptides (binary) or peptide:14-3-3γ complexes (ternary). The format is binding. Particulars: individual run, repeat 1, CrkII N-SH3 400 µM into the labelled complex 16.8 µM (Titrations 10, 12, 16). The protocol:
ITC binding experiments were conducted using a MicroCal iTC200 instrument (Malvern Instruments). Titrations were conducted at 25 °C in reverse mode (peptide in cell, protein in syringe) and consisted of 19 injections of 2 μl […] at a rate of 2 s μl^−1 at 90 s time intervals, whilst stirring at 1000 rpm. An initial injection of 0.4 μl protein was made and discarded during data analysis. Proteins (14-3-3ɣ or CrkII^NSH3) were first dialyzed overnight at 4 °C into ITC buffer (20 mM HEPES pH 7.4, 150 mM NaCl, 1 mM TCEP), filtered and degassed under vacuum. […] Following the first titration, excess solution was removed from the cell, and the syringe was washed and dried. […] All data were fitted to a single binding site model to obtain the stoichiometry (N), dissociation constant (KD) and the enthalpy of binding (ΔH), using MicroCal PEAQ-ITC Analysis software (v.1.41).
A general note: In ITC the heat of successive injections is recorded.

The target of another test is T4, 14-3-3γ (Homo sapiens, UniProt P61981).
T4 construct: 14-3-3γ (UniProt P61981-1; residues 1–247); 8-His tag with TEV protease cleavage site (N); made in house; host or cells: E. coli C41 (DE3)
T4 sequence (P61981 1-247): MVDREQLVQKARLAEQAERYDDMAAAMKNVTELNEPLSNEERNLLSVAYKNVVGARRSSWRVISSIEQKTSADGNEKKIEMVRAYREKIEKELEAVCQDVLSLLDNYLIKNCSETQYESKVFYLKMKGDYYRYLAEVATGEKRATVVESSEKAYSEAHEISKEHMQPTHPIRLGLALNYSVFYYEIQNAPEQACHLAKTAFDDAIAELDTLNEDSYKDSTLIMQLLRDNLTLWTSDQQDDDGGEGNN
Kind of test: SPR, PEAK peptides binding to immobilised 14-3-3γ. Particulars: peptide analyte over amine-coupled 14-3-3γ (CM5); Biacore S200, HBS-TP pH 7.4, 20 °C; steady-state 1:1 fit; mean ± S.E.M. The protocol: as §1

For the next test, the target named is 14-3-3ɣ. Kind of test: SPR, 14-3-3ɣ binding to immobilised PEAK proteins. Details: species or system human. Particulars: 14-3-3ɣ analyte 0.46–1000 nM, multi-cycle, over immobilised biotinylated PEAK protein; Biacore 8K+, 20 °C; KD only an estimate (bivalent analyte model); N = 3. The procedure: PEAK proteins and adapters proteins (full length or individual domains) were biotinylated using EZ-Link™ NHS-PEG4-Biotin (Thermo Fisher) at a 1:1 molar ratio (100 µM) for 1 h at room temperature, then excess biotin was removed by buffer exchange using a Zeba™ Spin Desalting Column (Thermo Fisher) into HBS-T buffer (20 mM HEPES pH 7.4, 150 mM NaCl, 1 mM TCEP).
SPR binding studies of PEAK proteins to full length CrkII/Grb2 and sub-domains were performed using a Biacore 8K+ Instrument (Cytiva) and analyzed using Biacore Insight Evaluation Software (v. 3.0.12.15655). […] Biotinylated PEAK proteins (with or without Src phosphorylation; 500 nM in HBS-TP) were immobilized using a biotin CAPture kit (Cytiva) in HBS-TP running buffer at 20 °C. Binding studies and steady-state data analysis were performed as described for CrkII^NSH3 with the inclusion of an additional surface regeneration step (60 s injection of 1 M NaCl) between cycles. For Grb2^FL, Grb2^SH2, CrkII^SH2, CrkII^FL monomer and CrkII^FL dimer, to reduce nonspecific interactions the HBS-TP running buffer was supplemented with additional NaCl to a final concentration of 500 mM.
Binding studies for 14-3-3ɣ were undertaken in the same way in multi cycle mode (8 point, 3-fold serial dilution series, 0.46–1000 nM, 60 s contact time, 300 s dissociation).

The target of test [2] is T3, CrkII^NSH3. Kind of test: SPR, CrkII NSH3 binding to immobilised PEAK proteins. Particulars: read-out: CrkII NSH3 SPR KD; interactor as analyte over biotinylated PEAK protein captured with biotin CAPture kit; Biacore 8K+, HBS-TP, 20 °C; steady-state fit; mean ± SD (N = 2); read-out: CrkII-SH2 SPR KD. The protocol: (§2) SPR binding studies of PEAK PRM peptides to CrkII^NSH3 were performed using a Biacore S200 Instrument (Cytiva). Purified CrkII^NSH3 was diluted to 5 µg ml^−1 in 10 mM sodium acetate pH 4.0 and amine coupled at 25 °C to a Series S CM5 sensor chip, in HBS-N running buffer (20 mM HEPES pH 7.4, 150 mM NaCl) to a final immobilization level of 1100–1400 response units (RU), followed by surface deactivation using 1 M ethanolamine. A blank activation/deactivation was used for the reference surface. Peptide binding studies were performed at 20 °C in HBS-TP running buffer (20 mM HEPES pH 7.4, 150 mM NaCl, 1 mM TCEP, 0.005% (v/v) Tween-P20). […] Peptide stocks were further diluted to in running buffer to 10 or 20 µM and prepared as a 11-point concentration series (2-fold serial dilution, […] for PEAK PRM peptides, or 20 µM–20 nM for PEAK tandem motif peptides). Samples were injected in a multi-cycle run (flow rate 30 µl min^−1, contact time of 60 s, dissociation 120 s) without regeneration. Sensorgrams were double referenced, and steady-state binding data fitted using a 1:1 binding model using Biacore S200 Evaluation Software (Cytiva, v. 1.1).
(§3) SPR binding studies of PEAK proteins to full length CrkII/Grb2 and sub-domains were performed using a Biacore 8K+ Instrument (Cytiva) and analyzed using Biacore Insight Evaluation Software (v. 3.0.12.15655). […] Binding studies and steady-state data analysis were performed as described for CrkII^NSH3 with the inclusion of an additional surface regeneration step (60 s injection of 1 M NaCl) between cycles.

The next test concerns the target T5, CrkII^SH2 (Homo sapiens, UniProt P46108).
T5 construct: CrkII^SH2; UniProt P46108-1, residues 6–120; 8-His tag with TEV protease cleavage site (N); made in house; host or cells: E. coli C41 (DE3)
Kind of test: SPR, CrkII SH2 binding to immobilised PEAK proteins. Particulars: interactor as analyte over biotinylated PEAK protein (biotin CAPture); Biacore 8K+, HBS-TP with 500 mM NaCl, 20 °C; steady-state fit; mean ± S.E.M. (N = 3). The procedure: as §2, §3

T5 sequence (P46108 6-120): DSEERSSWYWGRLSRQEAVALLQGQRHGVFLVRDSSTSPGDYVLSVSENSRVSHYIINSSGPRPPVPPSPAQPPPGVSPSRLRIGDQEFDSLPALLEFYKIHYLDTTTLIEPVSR

With `CC[C@H](C)[C@H](NC(=O)[C@H](CCCCN)NC(=O)[C@H](CCCCN)NC(=O)[C@H](CCC(N)=O)NC(=O)[C@@H]1CCCN1C(=O)[C@H](CC(C)C)NC(=O)[C@@H]1CCCN1C(=O)[C@@H]1CCCN1C(=O)[C@@H]1CCCN1C(C)=O)C(=O)N[C@H](C(=O)N[C@@H](CO)C(=O)N[C@@H](CCCNC(=N)N)C(=O)N[C@@H](C)C(=O)N[C@@H](C)C(=O)N[C@@H](COP(=O)(O)O)C(=O)N[C@@H](CO)C(=O)N1CCC[C@H]1C(=O)N[C@@H](CC(=O)O)C(=O)NCC(=O)N[C@@H](Cc1ccccc1)C(N)=O)C(C)C` (single isomer, unassigned) [PEAK2^tandem-pS826], the Kd amounted to 7.4 µM at 14-3-3ε and 1.9 µM on 14-3-3η.
For the compound `CC[C@H](C)[C@H](NC(=O)[C@H](CCCCN)NC(=O)[C@H](CCCCN)NC(=O)[C@@H]1CCCN1C(=O)[C@H](CC(C)C)NC(=O)[C@@H]1CCCN1C(=O)[C@@H]1CCCN1C(=O)[C@@H]1CCCN1C(=O)[C@H](CC(C)C)NC(=O)[C@@H]1CCCN1C(C)=O)C(=O)N[C@@H](CC(C)C)C(=O)N[C@H](C(=O)N[C@@H](CCCNC(=N)N)C(=O)N[C@H](C(=O)N[C@@H](CCC(N)=O)C(=O)N[C@@H](COP(=O)(O)O)C(=O)N[C@@H](CC(C)C)C(=O)N1CCC[C@H]1C(=O)N[C@H](C(=O)N[C@@H](CCCNC(=N)N)C(=O)N[C@@H](CCCNC(=N)N)C(N)=O)[C@@H](C)O)[C@@H](C)O)[C@@H](C)O` (single isomer, unassigned) [PEAK3 tandem-pS69 : 14-3-3γ (K50E)], on CrkII^NSH3 [1], the “ITC -T∆S” value is recorded as -13.5 kJ/mol, the “ITC N (sites)” value stood at 0.69, the “ITC ∆G” value was -30.8 kJ/mol and the “ITC ∆H” value is listed as -17.4 kJ/mol.
Regarding `CC[C@H](C)[C@H](NC(=O)[C@H](CCCCN)NC(=O)[C@H](CCCCN)NC(=O)[C@@H]1CCCN1C(=O)[C@H](CC(C)C)NC(=O)[C@@H]1CCCN1C(=O)[C@@H]1CCCN1C(=O)[C@@H]1CCCN1C(=O)[C@H](CC(C)C)NC(=O)[C@@H]1CCCN1C(C)=O)C(=O)N[C@@H](CC(C)C)C(=O)N[C@H](C(=O)N[C@@H](CCCNC(=N)N)C(N)=O)[C@@H](C)O` (single isomer, unassigned) [PEAK3^54–66], on 14-3-3γ, the “SPR KD, 14-3-3γ (gamma)” value is on record as “No binding”.
Regarding `CC[C@H](C)[C@H](NC(=O)[C@H](CCCCN)NC(=O)[C@H](CCCCN)NC(=O)[C@@H]1CCCN1C(=O)[C@H](CC(C)C)NC(=O)[C@@H]1CCCN1C(=O)[C@@H]1CCCN1C(=O)[C@@H]1CCCN1C(=O)[C@H](CC(C)C)NC(=O)[C@@H]1CCCN1C(C)=O)C(=O)N[C@@H](CC(C)C)C(=O)N[C@H](C(=O)N[C@@H](CCCNC(=N)N)C(=O)N[C@H](C(=O)N[C@@H](CCC(N)=O)C(=O)N[C@@H](COP(=O)(O)O)C(=O)N[C@@H](CC(C)C)C(=O)N1CCC[C@H]1C(=O)N[C@H](C(=O)N[C@@H](CCCNC(=N)N)C(=O)N[C@@H](CCCNC(=N)N)C(N)=O)[C@@H](C)O)[C@@H](C)O)[C@@H](C)O` (single isomer, unassigned) [PEAK3^tandem-pS69], the Kd at 14-3-3ε is 0.78 µM.
In the case of “PEAK3-FL E.coli: full length human PEAK3 (1–473) purified from E. coli, no bound 14-3-3”, at 14-3-3ɣ, the “SPR KD, 14-3-3ɣ” value is “No binding”. The dissociation constant (Kd) with CrkII^NSH3 [2] stood at 9.6 µM. Besides, the “SPR KD, CrkII-SH2” value in the test with CrkII^SH2 is given as “No binding”.
